The text below walks through data of PubChem BioAssay AID248 (DTP/NCI, 2004).

The experiment concerns L1210 leukemia ip in BDF1 mice, survival T/C. Put plainly: NCI In Vivo Anticancer Drug Screen. Data for tumor model L1210 Leukemia (intraperitoneal) in B6D2F1 (BDF1) mice. The note with it: endpoint: mean survival time, higher = longer survival. Summed up: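 Each compound was tested against a transplantable tumor grown in mice. The endpoint was survival, with treated animals benchmarked against vehicle controls as a simple ratio.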

[1] abbreviates: dose: 400.0 mg/kg/injection, schedule: Q04DX003 (ip), vehicle: saline.
The mark [2] stands for this setting: dose: 100.0 mg/kg/injection, schedule: Q01DX001 (ip), vehicle: saline with Tween-80.
Where [3] appears, read: dose: 100.0 mg/kg/injection, schedule: Q01DX009 (ip), vehicle: saline with Tween-80.
The mark [4] stands for this setting: dose: 200.0 mg/kg/injection, schedule: Q01DX009 (ip), vehicle: saline with Tween-80.
The mark [5] stands for this setting: dose: 400.0 mg/kg/injection, schedule: Q01DX009 (ip), vehicle: saline with Tween-80.
[6] abbreviates: dose: 100.0 mg/kg/injection, schedule: Q01DX009 (ip), vehicle: Klucel (hydroxypropylcellulose) (HPC).
[7] abbreviates: dose: 200.0 mg/kg/injection, schedule: Q01DX009 (ip), vehicle: Klucel (hydroxypropylcellulose) (HPC).
Where [8] appears, read: dose: 400.0 mg/kg/injection, schedule: Q01DX009 (ip), vehicle: Klucel (hydroxypropylcellulose) (HPC).
Where [9] appears, read: dose: 100.0 mg/kg/injection, schedule: Q04DX002 (ip), vehicle: saline with Tween-80.
Where [10] appears, read: dose: 100.0 mg/kg/injection, schedule: Q04DX003 (ip), vehicle: saline with Tween-80.
Where [11] appears, read: dose: 200.0 mg/kg/injection, schedule: Q04DX002 (ip), vehicle: saline with Tween-80.
Where [12] appears, read: dose: 200.0 mg/kg/injection, schedule: Q04DX003 (ip), vehicle: saline with Tween-80.
Setting [13] is: dose: 400.0 mg/kg/injection, schedule: Q04DX002 (ip), vehicle: saline with Tween-80.
Setting [14] is: dose: 400.0 mg/kg/injection, schedule: Q04DX003 (ip), vehicle: saline with Tween-80.
[15] abbreviates: dose: 25.0 mg/kg/injection, schedule: Q04DX003 (ip), vehicle: Klucel (hydroxypropylcellulose) (HPC).
The mark [16] stands for this setting: dose: 50.0 mg/kg/injection, schedule: Q04DX003 (ip), vehicle: Klucel (hydroxypropylcellulose) (HPC).
Setting [17] is: dose: 100.0 mg/kg/injection, schedule: Q04DX003 (ip), vehicle: Klucel (hydroxypropylcellulose) (HPC).
[18] abbreviates: dose: 200.0 mg/kg/injection, schedule: Q04DX003 (ip), vehicle: Klucel (hydroxypropylcellulose) (HPC).
The mark [19] stands for this setting: dose: 400.0 mg/kg/injection, schedule: Q04DX003 (ip), vehicle: Klucel (hydroxypropylcellulose) (HPC).

Where “and” joins values, the source holds several entries; their conditions need not be identical. Identical values can stand only once. Toxic doses and inconclusive results are not listed.

Turning to `CC(C)=CCCC(O)C1CCC2C3CCC4CCCCC4(C)C3CCC12C` (stereo not drawn), the T/C is 96 % of control (dose: 100.0 mg/kg/injection, schedule: Q04DX002 (ip), vehicle: DMSO); 96 % of control (dose: 200.0 mg/kg/injection, schedule: Q04DX002 (ip), vehicle: DMSO); 92 % of control (dose: 400.0 mg/kg/injection, schedule: Q04DX002 (ip), vehicle: DMSO).
Consider `BrC1=C(Br)C2(Br)C(c3ccccc3)CC1(Br)C2(Br)Br` (stereo not drawn), for which the T/C (dose: 100.0 mg/kg/injection, schedule: Q04DX003 (ip), vehicle: saline) was 92 % of control; the T/C (dose: 200.0 mg/kg/injection, schedule: Q04DX003 (ip), vehicle: saline) is 106 % of control; the T/C under setting [1] was 92 % of control.
With `CCCCCCCCP(=O)(CCCC)CCCCCCCC`, the T/C was 100 % of control (dose: 25.0 mg/kg/injection, schedule: Q01DX001 (ip), vehicle: saline with Tween-80); 101 % of control (dose: 50.0 mg/kg/injection, schedule: Q01DX001 (ip), vehicle: saline with Tween-80); 100 % of control and 104 % of control under setting [2].
For the molecule `O=C(CC(O)(C(F)(F)F)C(F)(F)F)c1c2ccccc2cc2ccccc12`, the T/C under setting [3] was 98 % of control, the T/C under setting [4] is 109 % of control and the T/C under setting [5] was 98 % of control.
With `COc1cccc(C(Cc2ccccc2)NCc2ccccc2)c1` (stereo not drawn), the T/C under setting [6] was 91 % of control, the T/C under setting [7] is 91 % of control and the T/C under setting [8] is 96 % of control.
Take `S=C(N/N=C1\CCCCC1c1ccccc1)Nc1ccccc1` (stereo not drawn): the T/C is 95 % of control under setting [6], 90 % of control under setting [7] and 104 % of control under setting [8].
Turning to `COc1cc([N+](=O)[O-])c(Cl)cc1NS(=O)(=O)c1ccc(C)cc1`, the T/C runs as follows: (dose: 100.0 mg/kg/injection, schedule: Q01DX001 (ip), vehicle: Klucel (hydroxypropylcellulose) (HPC)) 98 % of control; (dose: 200.0 mg/kg/injection, schedule: Q01DX001 (ip), vehicle: Klucel (hydroxypropylcellulose) (HPC)) 95 % of control; (dose: 400.0 mg/kg/injection, schedule: Q01DX001 (ip), vehicle: Klucel (hydroxypropylcellulose) (HPC)) 90 % of control.
For `CCOc1ccc(NC(=O)Oc2ccc(C(=O)OC)cc2)cc1`, the T/C runs as follows: under setting [2], 93 % of control; under setting [3], 101 % of control and 103 % of control; under setting [9], 103 % of control and 92 % of control; under setting [10], 105 % of control; (dose: 200.0 mg/kg/injection, schedule: Q01DX001 (ip), vehicle: saline with Tween-80) 91 % of control; under setting [4], 100 % of control and 103 % of control. For the same molecule, the T/C under setting [11] was 95 % of control and 92 % of control; the T/C under setting [12] was 103 % of control; the T/C (dose: 400.0 mg/kg/injection, schedule: Q01DX001 (ip), vehicle: saline with Tween-80) is 91 % of control; the T/C under setting [5] is 93 % of control and 94 % of control; the T/C under setting [13] is 103 % of control; the T/C under setting [14] is 105 % of control.
With `Cc1cccc(C)c1NC(=O)Nc1cccc2ccccc12`, the T/C is 93 % of control (dose: 100.0 mg/kg/injection, schedule: Q01DX009 (ip), vehicle: gum acacia); 98 % of control (dose: 100.0 mg/kg/injection, schedule: Q04DX003 (ip), vehicle: gum acacia); 95 % of control (dose: 200.0 mg/kg/injection, schedule: Q04DX003 (ip), vehicle: gum acacia); 94 % of control (dose: 400.0 mg/kg/injection, schedule: Q01DX009 (ip), vehicle: gum acacia); 91 % of control (dose: 400.0 mg/kg/injection, schedule: Q04DX003 (ip), vehicle: gum acacia).
Turning to `N=C1SCC(=O)N1CCN1C(=N)SCC1=O`, the T/C (dose: 100.0 mg/kg/injection, schedule: Q01DX001 (ip), vehicle: carboxymethylcellulose (CMC)) is 101 % of control; the T/C (dose: 200.0 mg/kg/injection, schedule: Q01DX001 (ip), vehicle: carboxymethylcellulose (CMC)) is 90 % of control; the T/C (dose: 400.0 mg/kg/injection, schedule: Q01DX001 (ip), vehicle: carboxymethylcellulose (CMC)) is 97 % of control.
Take `COC(=O)C(CCC(=O)CN1C(=O)c2ccccc2C1=O)N1C(=O)c2ccccc2C1=O` (stereo not drawn): the T/C under setting [10] is 101 % of control, the T/C under setting [12] was 99 % of control and the T/C under setting [14] is 87 % of control.
For `CCOC(=O)c1c(OC(C)=O)cc(C)nc1OC(C)=O`, the T/C runs as follows: (dose: 100.0 mg/kg/injection, schedule: Q01DX001 (ip), vehicle: saline) 100 % of control; (dose: 200.0 mg/kg/injection, schedule: Q01DX001 (ip), vehicle: saline) 100 % of control; (dose: 400.0 mg/kg/injection, schedule: Q01DX001 (ip), vehicle: saline) 111 % of control.
Turning to `CCC(F)C(Br)C(=O)O` (stereo not drawn), the T/C is 101 % of control under setting [9], 93 % of control under setting [11] and 87 % of control under setting [13].
On to `CNC(=O)Oc1ccc2ccccc2c1[N+](=O)[O-]`, for which the T/C (dose: 75.0 mg/kg/injection, schedule: Q01DX001 (ip), vehicle: other) is 101 % of control.
Consider `C=CCc1cc(CNC(C)C)c(O)c(OC)c1`, for which the T/C under setting [15] is 96 % of control; the T/C under setting [16] is 88 % of control; the T/C under setting [17] was 101 % of control and 92 % of control.
Take `COc1ccc(N)cc1`: the T/C is 121 % of control (dose: 100.0 mg/kg/injection, schedule: Q01DX009 (ip), vehicle: alcohol) and 88 % of control (dose: 200.0 mg/kg/injection, schedule: Q01DX009 (ip), vehicle: alcohol).
On to `CN(C)N=Nc1ccc(S(=O)(=O)Nc2ncccn2)cc1`, for which the T/C runs as follows: under setting [9], 114 % of control; (dose: 264.0 mg/kg/injection, schedule: Q04DX003 (ip), vehicle: saline with Tween-80) 100 % of control; under setting [13], 177 % of control; under setting [14], 105 % of control; under setting [1], 176 % of control; (dose: 600.0 mg/kg/injection, schedule: Q04DX003 (ip), vehicle: saline) 124 % of control.
Turning to `CC1(C)NC(=O)C(/C=C/c2ccccc2)O1` (stereo not drawn), the T/C runs as follows: (dose: 25.0 mg/kg/injection, schedule: Q01DX009 (ip), vehicle: Klucel (hydroxypropylcellulose) (HPC)) 102 % of control; under setting [15], 97 % of control; (dose: 50.0 mg/kg/injection, schedule: Q01DX009 (ip), vehicle: Klucel (hydroxypropylcellulose) (HPC)) 100 % of control; under setting [16], 95 % of control; under setting [6], 89 % of control; under setting [17], 97 % of control. Also, the T/C under setting [18] is 92 % of control and the T/C under setting [19] was 101 % of control.
For the molecule `O=C1CCC(=S)N1c1ccccc1`, the T/C reads like this: under setting [17], 101 % of control; under setting [18], 100 % of control; under setting [19], 95 % of control.
For `O=[N+]([O-])c1ccc(Cl)c(C(=S)N2CCCCC2)c1`, in that order: 99 % of control, 96 % of control and 96 % of control.
Regarding `CCCCC(C)C1(C)C(=O)NC(=O)NC1=O` (stereo not drawn), the T/C (dose: 75.0 mg/kg/injection, schedule: Q01DX001 (ip), vehicle: saline) was 105 % of control; the T/C (dose: 150.0 mg/kg/injection, schedule: Q01DX001 (ip), vehicle: saline) is 103 % of control; the T/C (dose: 300.0 mg/kg/injection, schedule: Q01DX001 (ip), vehicle: saline) was 105 % of control.
In the case of `CN(C(=O)c1ccc([N+](=O)[O-])cc1)C(c1ccco1)P(=O)(c1ccccc1)c1ccccc1` (stereo not drawn), the T/C runs as follows: under setting [3], 90 % of control; under setting [9], 96 % of control; under setting [4], 87 % of control; under setting [11], 86 % of control; under setting [5], 90 % of control; under setting [13], 93 % of control.
Consider `N#C/C(=C\c1cccs1)c1ccccc1`, for which the T/C is, setting by setting: under setting [16], 110 % of control; under setting [17], 98 % of control; under setting [18], 104 % of control.
